According to patent EP4496786B1, “CRYSTALLINE FORM OF 2-ACRYLAMIDO-2-METHYLPROPANESULPHONIC ACID POTASSIUM SALT” (SNF Group, priority 2023, dated 2024):

What was measured:
Format in all cases: physicochemical
[1] = Minimum ignition energy (MIE), standard NF EN 13821, vertical Hartmann tube; settings: dispersed solid mass 0,5 g
Excerpt: The minimum ignition energy represents the minimum energy that must be supplied to a product (chemical compound) to cause it to ignite. The energy may be electrical or thermal. The minimum ignition energy is an essential piece of information when considering the risk of explosion during product handling (transfer, storage, reaction, shaping, etc.). In the case of solids, this energy is the minimum energy of an electric spark likely to ignite a cloud of dust. The higher the value of the minimum ignition energy, the less risk the solid presents when used, handled or stored. The minimum ignition energy is measured in accordance with standard NF EN 13821. The explosimeter is a vertical Hartmann tube. The dust dispersion system is of the mushroom type. Total induction is less than 25 microhenry. Discharge voltage is between 5 kV and 15 kV. The electrodes are made of brass and spaced apart by a minimum distance of 6 mm.

[2] = Particle-size distribution by laser diffraction (Cilas 1190)
Description: ATBS AH and crystals of ATBS.K AK2a are analysed by laser diffraction to determine their particle-size distribution.
The laser diffraction equipment used is a Cilas 1190.

[3] = Storage stability of ATBS / ATBS.K stored in solid form: homopolymer by steric exclusion chromatography; settings: newly prepared solution
Description: In parallel, the stability of the different ATBS (acid AH or potassium salt AK2a) in solid form was also assessed over the same period of time.
In this case, every three months, 500 g of a solution of ATBS.K was freshly prepared according to the preparation process described in example 10a or 11 using the stored ATBS products of AH, AK2a and CE-AK2c to 2e.
Stability of the solid products was also assessed by monitoring the amount of homopolymers of ATBS.K present after that time.
The solutions were analysed by liquid-phase steric exclusion chromatography using an Agilent 1260 chromatograph equipped with Aquagel-OH 20, 30, 40 and 50 columns allowing analysis of anionic polymers up to 600,000 g/mol PEG equivalent.
The solutions of ATBS.K were diluted to 2000 ppm (by weight in water) before being injected. The UV signal at 250 nm at the column outlet was integrated for the polymer peaks and are detailed in tables 4 and 5 below. The larger the signal area, the more polymer is present, and therefore the lower the stability of the product over time. Table 4: Stability of ATBS and ATBS potassium salt stored in solutions

Structure (SMILES)	90% of the particles are smaller than [2]	d50 value [2]	UV signal at 250 nm integrated for the polymer peaks ([3]; T0)	UV signal at 250 nm integrated for the polymer peaks ([3]; T0 + 6 months)	UV signal at 250 nm integrated for the polymer peaks ([3]; T0 + 9 months)	UV signal at 250 nm integrated for the polymer peaks ([3]; T0 + 12 months)	UV signal at 250 nm integrated for the polymer peaks ([3]; T0 + 3 months, potassium salt)	also measured
C=CC(=O)NC(C)(C)CS(=O)(=O)O [ATBS AH, 2-acrylamido-2-methylpropanesulphonic acid]	100 µm	approximately 40 µm	0 mV.s	7702 mV.s	10503 mV.s	256300 mV.s	–	Flame ([1]; Energy 300 mJ): Average; Pressure ([1]; Energy 300 mJ): Average; Flame ([1]; Energy 500 mJ): Average; Pressure ([1]; Energy 500 mJ): Average; Flame ([1]; Energy 1000 mJ): Small; Pressure ([1]; Energy 1000 mJ): Low; UV signal at 250 nm integrated for the polymer peaks ([3]; T0 + 3 months): 250 mV.s
C=CC(=O)NC(C)(C)CS(=O)(=O)[O-].[K+] [ATBS.K CE-AK2e, 2-acrylamido-2-methylpropanesulphonic acid potassium salt]	–	–	0 mV.s	–	–	–	251 mV.s	–
C=CC(=O)NC(C)(C)CS(=O)(=O)[O-].[K+] [ATBS.K AK2a, 2-acrylamido-2-methylpropanesulphonic acid potassium salt]	approximately 1500 µm	approximately 600 µm	0 mV.s	6532 mV.s	9532 mV.s	25631 mV.s	200 mV.s	Flame ([1]; High energy): Small; Pressure ([1]; High energy): Low; particles smaller than 325 µm [2]: less than 10%
C=CC(=O)NC(C)(C)CS(=O)(=O)[O-].[K+] [ATBS.K CE-AK2d, 2-acrylamido-2-methylpropanesulphonic acid potassium salt]	–	–	0 mV.s	–	–	–	254 mV.s	–
C=CC(=O)NC(C)(C)CS(=O)(=O)[O-].[K+] [ATBS.K CE-AK2c, 2-acrylamido-2-methylpropanesulphonic acid potassium salt]	–	–	0 mV.s	–	–	–	261 mV.s	–
